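Cells were grown in 96-well plates and exposed to each compound for 48 hours at five concentrations; endpoints were interpolated linearly between bracketing concentrations, or set to the highest concentration if not reached. Abbreviation: GI50, concentration required for 50% inhibition of growth.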 Activity calls are given as the source filed them. No stated cut-off is given here; in the data, active = GI50 up to about 1.1 µM and inactive = higher. Bounds are passed on as bounds.

Some test systems named below: NCI-H460; SW-620; HL-60; ACHN; HT-29; 786-0; T47D; RXF 393; CAKI-1; HCT-116; MDA-N; HCT-15; MOLT-4; SK-MEL-5; OVCAR-8; NCI-H226; SK-MEL-2; A498; PC-3.
Common to all, as to experiment: growth of human tumour cells (NCI), 48 h

Take `O=C(NCc1ccccc1)c1cc2ccccc2o/c1=N\c1cccc(C(F)(F)F)c1`: the GI50 with NCI-H460 was 41.2 µM (inactive); in the experiment with SW-620, 43 µM (inactive); with HL-60, 20.5 µM (inactive); with ACHN it was 46.3 µM (inactive); with HT-29, 35.9 µM (inactive); in the experiment with 786-0, 29.8 µM (inactive). Further, the GI50 in the experiment on T47D is 28.1 µM (inactive); in the experiment with RXF 393, 78 µM (inactive); with CAKI-1 it was > 100 µM (inactive); in the experiment on HCT-116, 55.6 µM (inactive); in the experiment on MDA-N, 54.8 µM (inactive); in the experiment on HCT-15, 36.9 µM. Besides, the GI50 was 23.4 µM (inactive) with MOLT-4; 26.4 µM (inactive) in the experiment on SK-MEL-5; 56.1 µM (inactive) with OVCAR-8; 29.8 µM (inactive) with NCI-H226; 28.6 µM (inactive) in the experiment on SK-MEL-2; 85.1 µM (inactive) with A498. Moreover, the GI50 with PC-3 was 44.3 µM (inactive).

In the case of `C=C(C)CNCCN`, the GI50 with NCI-H460, in the experiment on SW-620, in the experiment on HL-60, in the experiment with ACHN, in the experiment with HT-29 and with 786-0 was > 100 µM (inactive) in each case. Besides, the GI50 is > 100 µM (inactive) with T47D; > 100 µM (inactive) in the experiment with RXF 393; > 100 µM (inactive) in the experiment with CAKI-1; > 100 µM (inactive) with HCT-116; > 100 µM (inactive) in the experiment with MDA-N; more than 100 µM with HCT-15. For the same compound, the GI50 with MOLT-4, in the experiment with SK-MEL-5, in the experiment on OVCAR-8, in the experiment with NCI-H226, in the experiment with SK-MEL-2 and with A498 was > 100 µM (inactive) throughout. Besides, the GI50 in the experiment on PC-3 is > 100 µM (inactive).

For `Cc1nc2c(sc3nc4c(cc32)CCC4)c(=O)o1`, the GI50 is > 59.8 µM (inactive) with NCI-H460; > 59.7 µM (inactive) in the experiment with SW-620; 49.9 µM (inactive) in the experiment with HL-60; > 66.7 µM (inactive) in the experiment with ACHN; 36.7 µM (inactive) in the experiment with HT-29; > 72.4 µM (inactive) in the experiment on 786-0. The GI50 with T47D was > 78 µM (inactive); with RXF 393 it was > 100 µM (inactive); in the experiment with CAKI-1, > 100 µM (inactive); in the experiment on HCT-116 it was 32.8 µM (inactive); in the experiment with MDA-N it was 38.7 µM (inactive); in the experiment with HCT-15 it was 34.4 µM. The GI50 in the experiment on MOLT-4 was 41.9 µM (inactive); with SK-MEL-5, 37.5 µM (inactive); with OVCAR-8, 36.1 µM (inactive); in the experiment with NCI-H226, > 96.2 µM (inactive); in the experiment on SK-MEL-2, > 100 µM (inactive); in the experiment with A498, > 100 µM (inactive). The GI50 in the experiment on PC-3 is > 100 µM (inactive).

For the compound `NC(=S)Nc1ccc2c(c1)oc1ccccc12`, the GI50 in the experiment on NCI-H460 is > 100 µM (inactive); with SW-620, > 100 µM (inactive); with HL-60 it was 7.82 µM (inactive); in the experiment on ACHN, > 100 µM (inactive); in the experiment on HT-29, > 100 µM (inactive); in the experiment on 786-0, > 100 µM (inactive). Besides, the GI50 is > 31.5 µM (inactive) in the experiment on T47D; > 100 µM (inactive) in the experiment on RXF 393; > 100 µM (inactive) in the experiment on CAKI-1; > 100 µM (inactive) in the experiment on HCT-116; > 100 µM (inactive) in the experiment with MDA-N; 55.1 µM with HCT-15. Besides, the GI50 in the experiment on MOLT-4 was 7.1 µM (inactive); in the experiment with SK-MEL-5 it was 18.9 µM (inactive); with OVCAR-8, > 100 µM (inactive); in the experiment with NCI-H226 it was 39 µM (inactive); in the experiment on SK-MEL-2, > 100 µM (inactive); in the experiment on A498, > 100 µM (inactive). The GI50 in the experiment with PC-3 is > 100 µM (inactive).

For the compound `CN1CSC(=S)N(c2c3ccccc3nc3ccc(Br)cc23)C1`, the GI50 is 3.83 µM (inactive) in the experiment on NCI-H460; 3.89 µM (inactive) in the experiment with SW-620; 11.1 µM (inactive) in the experiment on HL-60; 6.59 µM (inactive) in the experiment with ACHN; 5.42 µM (inactive) in the experiment with HT-29; 4.7 µM (inactive) with 786-0. The GI50 in the experiment with T47D was 11.6 µM (inactive); in the experiment on RXF 393, 11.9 µM (inactive); in the experiment on CAKI-1 it was 5.41 µM (inactive); with HCT-116, 4.28 µM (inactive); in the experiment on MDA-N it was 10.4 µM (inactive); in the experiment with HCT-15, 6.4 µM. Further, the GI50 was 0.783 µM (active) with MOLT-4; 12.4 µM (inactive) in the experiment with SK-MEL-5; 7.93 µM (inactive) in the experiment with OVCAR-8; 10 µM (inactive) in the experiment on NCI-H226; 13 µM (inactive) in the experiment on SK-MEL-2; 13.6 µM (inactive) with A498. In the experiment on PC-3, the GI50 was 8.77 µM (inactive).

With `CC(C)(C)/C(O)=C\c1nc2cc(C(F)(F)F)ccc2[nH]c1=O`, the GI50 in the experiment on SW-620 was > 100 µM (inactive); with HL-60, 0.53 µM (active); in the experiment with ACHN, > 100 µM (inactive); with HT-29 it was 47.5 µM (inactive); with 786-0, > 100 µM (inactive); with T47D, > 100 µM (inactive). The GI50 in the experiment on RXF 393 was > 100 µM (inactive); in the experiment with CAKI-1, > 100 µM (inactive); in the experiment on HCT-116 it was > 100 µM (inactive); in the experiment with MDA-N it was > 100 µM (inactive); with HCT-15, more than 100 µM; in the experiment with MOLT-4, > 10 µM (inactive). The GI50 in the experiment on SK-MEL-5, in the experiment with OVCAR-8, with NCI-H226, with SK-MEL-2, with A498 and in the experiment with PC-3 was > 100 µM (inactive) each time.

Take `CCCCCCCCCC1CC(=O)NCC(=O)NC(C(C)C)C(=O)NC(CC(C)C)C(=O)NC(C)C(=O)NC(C(C)C)C(=O)O1` (stereo not drawn): the GI50 was 5.38 µM (inactive) in the experiment on NCI-H460; 3.84 µM (inactive) with SW-620; 56.1 µM (inactive) with HL-60; > 79.8 µM (inactive) in the experiment with ACHN; 5.9 µM (inactive) in the experiment on HT-29; 12.2 µM (inactive) in the experiment on 786-0. The GI50 in the experiment on T47D was 20.5 µM (inactive); in the experiment on RXF 393 it was 35.3 µM (inactive); in the experiment on CAKI-1, > 100 µM (inactive); in the experiment on HCT-116, 14.8 µM (inactive); with MDA-N, 17.1 µM (inactive); with HCT-15, more than 100 µM. Further, the GI50 in the experiment with MOLT-4 is 13.3 µM (inactive); with SK-MEL-5, 17.3 µM (inactive); in the experiment with OVCAR-8 it was 6.03 µM (inactive); with NCI-H226, 36.6 µM (inactive); in the experiment with SK-MEL-2, 25.2 µM (inactive); in the experiment with A498, 1.36 µM (inactive). The GI50 with PC-3 is 6.9 µM (inactive).

Regarding `NC1c2c(Cl)sc(Cl)c2C(=O)C1O` (stereo not drawn), the GI50 with NCI-H460 was 46 µM (inactive); in the experiment on SW-620 it was 17.4 µM (inactive); in the experiment on HL-60, 15.4 µM (inactive); with ACHN, 27.5 µM (inactive); in the experiment on HT-29 it was 19.7 µM (inactive); in the experiment with 786-0, 94.6 µM (inactive). Besides, the GI50 in the experiment on T47D is > 100 µM (inactive); with RXF 393, 12.8 µM (inactive); in the experiment on CAKI-1, 24.4 µM (inactive); in the experiment with HCT-116, 29.2 µM (inactive); with MDA-N it was 44.4 µM (inactive); with HCT-15, 16.5 µM. Moreover, the GI50 in the experiment on MOLT-4 was 23 µM (inactive); with SK-MEL-5, 26.9 µM (inactive); with OVCAR-8, 25.9 µM (inactive); in the experiment on NCI-H226 it was > 100 µM (inactive); in the experiment on SK-MEL-2 it was 73.8 µM (inactive); with A498, > 100 µM (inactive). The GI50 in the experiment on PC-3 is > 100 µM (inactive).

For `CC1=C(C)CC(C#N)(C#N)C(C#N)(C#N)C1`, the GI50 in the experiment with NCI-H460 was > 10 µM (inactive); in the experiment with SW-620, 2.31 µM (inactive); in the experiment with HL-60 it was 1.47 µM (inactive); in the experiment on ACHN, > 8.79 µM (inactive); with HT-29, > 5.78 µM (inactive); in the experiment with 786-0, > 4.94 µM (inactive). Moreover, the GI50 in the experiment with T47D is > 5.71 µM (inactive); in the experiment with RXF 393 it was > 4.39 µM (inactive); with CAKI-1 it was > 10 µM (inactive); with HCT-116 it was > 4.91 µM (inactive); with MDA-N, > 4.78 µM (inactive); in the experiment on HCT-15, more than 10 µM. In addition, the GI50 in the experiment with MOLT-4 was 2.51 µM (inactive); in the experiment on SK-MEL-5 it was > 6.19 µM (inactive); in the experiment with OVCAR-8 it was > 5.45 µM (inactive); in the experiment on NCI-H226, > 10 µM (inactive); with SK-MEL-2, > 10 µM (inactive); with A498, > 10 µM (inactive). The GI50 in the experiment on PC-3 is > 6.35 µM (inactive).

On to `O=C(OCc1ccccc1)N1c2cc([N+](=O)[O-])ccc2C(=O)N2CCC[C@H]2C1O` (stereo partly drawn), for which the GI50 with NCI-H460, with SW-620, in the experiment on HL-60, with ACHN, in the experiment with HT-29 and with 786-0 was > 100 µM (inactive) in each case. The GI50 in the experiment on T47D was > 100 µM (inactive); with RXF 393, > 100 µM (inactive); in the experiment with CAKI-1, > 100 µM (inactive); with HCT-116, > 100 µM (inactive); with MDA-N, > 100 µM (inactive); in the experiment on HCT-15, more than 100 µM. Also, the GI50 with MOLT-4, in the experiment on SK-MEL-5, with OVCAR-8, in the experiment on NCI-H226, in the experiment with SK-MEL-2 and in the experiment on A498 was > 100 µM (inactive) throughout. Also, the GI50 in the experiment on PC-3 is > 100 µM (inactive).

Turning to `C=C(CCOC)CCC1CCCCC(=C)C1=O` (stereo not drawn), the GI50 with NCI-H460, with SW-620, with HL-60, in the experiment on ACHN, in the experiment on HT-29 and with 786-0 was > 100 µM (inactive) each time. The GI50 in the experiment on T47D is > 100 µM (inactive); with RXF 393, > 100 µM (inactive); in the experiment with CAKI-1, > 100 µM (inactive); in the experiment on HCT-116, > 100 µM (inactive); with MDA-N, > 100 µM (inactive); in the experiment with HCT-15 it was more than 100 µM. Besides, the GI50 in the experiment with MOLT-4, in the experiment with SK-MEL-5, with OVCAR-8, in the experiment with NCI-H226, in the experiment on SK-MEL-2 and with A498 was > 100 µM (inactive) in each case. Further, in the experiment on PC-3, the GI50 was > 100 µM (inactive).
